{"source": "patent US9302999B2", "about": "“Substituted triazoles as herbicides” (E. I. DU PONT DE NEMOURS AND COMPANY, priority 2012, dated 2016)", "format_in_all_cases": "in vivo", "key": {"[1]": {"test_system": "barnyardgrass (Echinochloa crus-galli)", "experiment": "Test A pre-/postemergence: barnyardgrass", "conditions": "Echinochloa crus-galli, 240 h; for pest or weed control at 125 g/ha: 125 g ai/ha; for pest or weed control at 500 g/ha: 500 g ai/ha", "method_in_brief": "(§1)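 Plants in loam–sand blend were treated with test chemicals in non-phytotoxic solvent with surfactant, either as preemergence directed soil spray or postemergence at 2–10 cm, one- to two-leaf stage. After about ten days in greenhouse, injury was rated visually against untreated controls on a 0–100 scale (100 = complete control).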"}, "[2]": {"test_system": "crabgrass, large (large crabgrass, Digitaria sanguinalis)", "experiment": "Test A pre-/postemergence: crabgrass, large", "conditions": "Digitaria sanguinalis, 240 h; for pest or weed control at 125 g/ha: 125 g ai/ha; for pest or weed control at 500 g/ha: 500 g ai/ha", "method_in_brief": "as §1"}, "[3]": {"test_system": "pigweed (Amaranthus retroflexus)", "experiment": "Test A pre-/postemergence: pigweed", "conditions": "Amaranthus retroflexus, 240 h; for pest or weed control at 125 g/ha: 125 g ai/ha; for pest or weed control at 500 g/ha: 500 g ai/ha", "method_in_brief": "as §1"}, "[4]": {"test_system": "wheat (Triticum aestivum)", "experiment": "Test A pre-/postemergence: wheat", "conditions": "Triticum aestivum, 240 h; for plant injury at 125 g/ha: 125 g ai/ha; for plant injury at 500 g/ha: 500 g ai/ha", "method_in_brief": "as §1"}, "[5]": {"test_system": "blackgrass (Alopecurus myosuroides)", "experiment": "Test C pre-/postemergence: blackgrass", "method_in_brief": "(§2)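 Visual injury scored 0–100 (100 = complete control) against untreated controls after 13–15 greenhouse days. Surfactant-containing solvent formulations applied either to soil after sowing (loam/sand) or over 1- to 4-leaf plants, 2–18 cm tall.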"}, "corn (Zea mays)": {"test_system": "corn (Zea mays)", "experiment": "Test C pre-/postemergence: corn", "method_in_brief": "as §2"}, "[6]": {"test_system": "large crabgrass (Digitaria sanguinalis)", "experiment": "Test C pre-/postemergence: large crabgrass", "method_in_brief": "as §2"}, "[7]": {"test_system": "foxtail, giant (giant foxtail, Setaria faberii)", "experiment": "Test C pre-/postemergence: foxtail, giant", "method_in_brief": "as §2"}, "[8]": {"test_system": "lambsquarters (Chenopodium album)", "experiment": "Test C pre-/postemergence: lambsquarters", "method_in_brief": "as §2"}, "[9]": {"test_system": "morningglory (Ipomoea coccinea)", "experiment": "Test C pre-/postemergence: morningglory", "method_in_brief": "as §2"}, "[10]": {"test_system": "nutsedge, yellow (yellow nutsedge, Cyperus esculentus)", "experiment": "Test C pre-/postemergence: nutsedge, yellow", "method_in_brief": "as §2"}, "[11]": {"conditions": "Postemergence, 31 g ai/ha, scale 0 to 100 (0 no effect, 100 complete control)"}, "[12]": {"conditions": "Postemergence, 62 g ai/ha, scale 0 to 100 (0 no effect, 100 complete control)"}, "[13]": {"conditions": "Postemergence, 125 g ai/ha, scale 0 to 100, 0 no effect, 100 complete control"}, "[14]": {"conditions": "Postemergence, 250 g ai/ha, scale 0 to 100"}, "[15]": {"conditions": "Preemergence, 31 g ai/ha, scale 0 (no effect) to 100 (complete control)"}, "[16]": {"conditions": "Preemergence, 62 g ai/ha, scale of 0 to 100, 0 is no effect, 100 is complete control"}, "[17]": {"conditions": "Preemergence, 125 g ai/ha, scale 0 to 100, 0 no effect, 100 complete control"}, "[18]": {"conditions": "Preemergence, 250 g ai/ha, scale 0 to 100, 0 no effect, 100 complete control"}}, "note": "Read-outs that look alike come from different tables or passages of the source.", "data": [{"smiles": "CCOc1nn(-c2ccc(C(F)(F)F)cc2)nc1Cc1ccnc(C(F)(F)F)c1", "note": "[Compound 164, 4-[[5-ethoxy-2-[4-(trifluoromethyl)phenyl]-2H-1,2,3-triazol-4-yl]methyl]-2-(trifluoromethyl)pyridine]", "values": [{"measurement": "pest or weed control at 125 g/ha", "setting": "[1]; post-emergence, Postemergence, 0 to 100 scale, 0 is no effect, 100 is complete control, read-out: Plant response rating, Barnyardgrass", "value": 90, "unit": "%"}, {"measurement": "pest or weed control at 500 g/ha", "setting": "[1]; post-emergence, Postemergence, 0 to 100 scale, 0 is no effect, 100 is complete control, read-out: Barnyardgrass plant response rating", "value": 90, "unit": "%"}, {"measurement": "pest or weed control at 125 g/ha", "setting": "[1]; pre-emergence, Preemergence, 0 to 100 scale where 0 is no effect and 100 is complete control, read-out: Plant response rating, Barnyardgrass", "value": 90, "unit": "%"}, {"measurement": "pest or weed control at 500 g/ha", "setting": "[1]; pre-emergence, Preemergence, 0 to 100 scale (0 no effect, 100 complete control), read-out: Plant response rating, Barnyardgrass", "value": 100, "unit": "%"}, {"measurement": "pest or weed control at 125 g/ha", "setting": "[2]; post-emergence, Postemergence, 0 to 100 scale, 0 is no effect, 100 is complete control, read-out: Plant response rating, Crabgrass, Large", "value": 90, "unit": "%"}, {"measurement": "pest or weed control at 500 g/ha", "setting": "[2]; post-emergence, Postemergence, 0 to 100 scale, 0 is no effect, 100 is complete control, read-out: Crabgrass, Large plant response rating", "value": 90, "unit": "%"}, {"measurement": "pest or weed control at 125 g/ha", "setting": "[2]; pre-emergence, Preemergence, 0 to 100 scale where 0 is no effect and 100 is complete control, read-out: Plant response rating, Crabgrass, Large", "value": 100, "unit": "%"}, {"measurement": "pest or weed control at 500 g/ha", "setting": "[2]; pre-emergence, Preemergence, 0 to 100 scale (0 no effect, 100 complete control), read-out: Plant response rating, Crabgrass, Large", "value": 100, "unit": "%"}, {"measurement": "pest or weed control at 125 g/ha", "setting": "[3]; post-emergence, Postemergence, 0 to 100 scale, 0 is no effect, 100 is complete control, read-out: Plant response rating, Pigweed", "value": 100, "unit": "%"}, {"measurement": "pest or weed control at 500 g/ha", "setting": "[3]; post-emergence, Postemergence, 0 to 100 scale, 0 is no effect, 100 is complete control, read-out: Pigweed plant response rating", "value": 100, "unit": "%"}, {"measurement": "pest or weed control at 125 g/ha", "setting": "[3]; pre-emergence, Preemergence, 0 to 100 scale where 0 is no effect and 100 is complete control, read-out: Plant response rating, Pigweed", "value": 100, "unit": "%"}, {"measurement": "pest or weed control at 500 g/ha", "setting": "[3]; pre-emergence, Preemergence, 0 to 100 scale (0 no effect, 100 complete control), read-out: Plant response rating, Pigweed", "value": 100, "unit": "%"}, {"measurement": "plant injury at 125 g/ha", "setting": "[4]; post-emergence, Postemergence, 0 to 100 scale, 0 is no effect, 100 is complete control, read-out: Plant response rating, Wheat", "value": 50, "unit": "%"}, {"measurement": "plant injury at 500 g/ha", "setting": "[4]; post-emergence, Postemergence, 0 to 100 scale, 0 is no effect, 100 is complete control, read-out: Wheat plant response rating", "value": 60, "unit": "%"}, {"measurement": "plant injury at 125 g/ha", "setting": "[4]; pre-emergence, Preemergence, 0 to 100 scale where 0 is no effect and 100 is complete control, read-out: Plant response rating, Wheat", "value": 50, "unit": "%"}, {"measurement": "plant injury at 500 g/ha", "setting": "[4]; pre-emergence, Preemergence, 0 to 100 scale (0 no effect, 100 complete control), read-out: Plant response rating, Wheat", "value": 60, "unit": "%"}, {"measurement": "Plant response rating, Blackgrass", "setting": "[5]; [11]", "value": 5}, {"measurement": "Plant response rating, Blackgrass", "setting": "[5]; [12]", "value": 5}, {"measurement": "Plant response rating, Blackgrass", "setting": "[5]; [13]", "value": 15}, {"measurement": "Plant response rating, Blackgrass", "setting": "[5]; [14]", "value": 15}, {"measurement": "Plant response rating, Blackgrass", "setting": "[5]; [15]", "value": 5}, {"measurement": "Plant response rating, Blackgrass", "setting": "[5]; [16]", "value": 10}, {"measurement": "Plant response rating, Blackgrass", "setting": "[5]; [17]", "value": 60}, {"measurement": "Plant response rating, Blackgrass", "setting": "[5]; [18]", "value": 70}, {"measurement": "Plant response rating, Corn", "setting": "corn (Zea mays); [11]", "value": 15}, {"measurement": "Plant response rating, Corn", "setting": "corn (Zea mays); [12]", "value": 15}, {"measurement": "Plant response rating, Corn", "setting": "corn (Zea mays); [13]", "value": 20}, {"measurement": "Plant response rating, Corn", "setting": "corn (Zea mays); [14]", "value": 20}, {"measurement": "Plant response rating, Corn", "setting": "corn (Zea mays); [15]", "value": 0}, {"measurement": "Plant response rating, Corn", "setting": "corn (Zea mays); [16]", "value": 5}, {"measurement": "Plant response rating, Corn", "setting": "corn (Zea mays); [17]", "value": 10}, {"measurement": "Plant response rating, Corn", "setting": "corn (Zea mays); [18]", "value": 10}, {"measurement": "Plant response rating, Crabgrass, Large", "setting": "[6]; [11]", "value": 5}, {"measurement": "Plant response rating, Crabgrass, Large", "setting": "[6]; [12]", "value": 5}, {"measurement": "Plant response rating, Crabgrass, Large", "setting": "[6]; [13]", "value": 10}, {"measurement": "Plant response rating, Crabgrass, Large", "setting": "[6]; [14]", "value": 10}, {"measurement": "Plant response rating, Crabgrass, Large", "setting": "[6]; [15]", "value": 70}, {"measurement": "Plant response rating, Crabgrass, Large", "setting": "[6]; [16]", "value": 75}, {"measurement": "Plant response rating, Crabgrass, Large", "setting": "[6]; [17]", "value": 98}, {"measurement": "Plant response rating, Crabgrass, Large", "setting": "[6]; [18]", "value": 100}, {"measurement": "Plant response rating, Foxtail, Giant", "setting": "[7]; [11]", "value": 10}, {"measurement": "Plant response rating, Foxtail, Giant", "setting": "[7]; [12]", "value": 20}, {"measurement": "Plant response rating, Foxtail, Giant", "setting": "[7]; [13]", "value": 20}, {"measurement": "Plant response rating, Foxtail, Giant", "setting": "[7]; [14]", "value": 35}, {"measurement": "Plant response rating, Foxtail, Giant", "setting": "[7]; [15]", "value": 50}, {"measurement": "Plant response rating, Foxtail, Giant", "setting": "[7]; [16]", "value": 65}, {"measurement": "Plant response rating, Foxtail, Giant", "setting": "[7]; [17]", "value": 98}, {"measurement": "Plant response rating, Foxtail, Giant", "setting": "[7]; [18]", "value": 100}, {"measurement": "Plant response rating, Lambsquarters", "setting": "[8]; [11]", "value": 50}, {"measurement": "Plant response rating, Lambsquarters", "setting": "[8]; [12]", "value": 55}, {"measurement": "Plant response rating, Lambsquarters", "setting": "[8]; [13]", "value": 60}, {"measurement": "Plant response rating, Lambsquarters", "setting": "[8]; [14]", "value": 70}, {"measurement": "Plant response rating, Lambsquarters", "setting": "[8]; [15]", "value": 85}, {"measurement": "Plant response rating, Lambsquarters", "setting": "[8]; [16]", "value": 85}, {"measurement": "Plant response rating, Lambsquarters", "setting": "[8]; [17]", "value": 95}, {"measurement": "Plant response rating, Lambsquarters", "setting": "[8]; [18]", "value": 95}, {"measurement": "Plant response rating, Morningglory", "setting": "[9]; [11]", "value": 50}, {"measurement": "Plant response rating, Morningglory", "setting": "[9]; [12]", "value": 60}, {"measurement": "Plant response rating, Morningglory", "setting": "[9]; [14]", "value": 75}, {"measurement": "Plant response rating, Morningglory", "setting": "[9]; [15]", "value": 5}, {"measurement": "Plant response rating, Morningglory", "setting": "[9]; [16]", "value": 15}, {"measurement": "Plant response rating, Morningglory", "setting": "[9]; [17]", "value": 25}, {"measurement": "Plant response rating, Morningglory", "setting": "[9]; [18]", "value": 45}, {"measurement": "Plant response rating, Nutsedge, Yellow", "setting": "[10]; [11]", "value": 0}, {"measurement": "Plant response rating, Nutsedge, Yellow", "setting": "[10]; [12]", "value": 5}, {"measurement": "Plant response rating, Nutsedge, Yellow", "setting": "[10]; [13]", "value": 5}, {"measurement": "Plant response rating, Nutsedge, Yellow", "setting": "[10]; [14]", "value": 10}, {"measurement": "Plant response rating, Nutsedge, Yellow", "setting": "[10]; [15]", "value": 0}, {"measurement": "Plant response rating, Nutsedge, Yellow", "setting": "[10]; [16]", "value": 0}, {"measurement": "Plant response rating, Nutsedge, Yellow", "setting": "[10]; [17]", "value": 0}, {"measurement": "Plant response rating, Nutsedge, Yellow", "setting": "[10]; [18]", "value": 0}]}]}
